In patent US20080221086A1, “Novel Inhibitors of Glutaminyl Cyclase” (PROBIODRUG AG, priority 2006, published 2008):
Where two headings read alike, the source gives them in different places.

Biological target: hQC (Homo sapiens, UniProt Q16769)
Test: Fluorometric assay of glutaminyl cyclase (QC) inhibition, H-Gln-βNA or H-Gln-AMC substrate
Type: biochemical
How it was run: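 Ki values were obtained by fitting progress curves to a competitive-inhibition equation, and the rapid screen used 4 mM inhibitor with substrate at 1 KM. Both readouts coupled pyroglutamyl aminopeptidase at pH 8.0 and 30° C: H-Gln-βNA at 0.2 mM (ex/em 320/410 nm) or H-Gln-AMC (380/460 nm).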

[1] = compound from preparative synthesis, purified by chromatography, fluorescent assay, read-out: IC50 hQC

hQC, sequence (Q16769 29-361): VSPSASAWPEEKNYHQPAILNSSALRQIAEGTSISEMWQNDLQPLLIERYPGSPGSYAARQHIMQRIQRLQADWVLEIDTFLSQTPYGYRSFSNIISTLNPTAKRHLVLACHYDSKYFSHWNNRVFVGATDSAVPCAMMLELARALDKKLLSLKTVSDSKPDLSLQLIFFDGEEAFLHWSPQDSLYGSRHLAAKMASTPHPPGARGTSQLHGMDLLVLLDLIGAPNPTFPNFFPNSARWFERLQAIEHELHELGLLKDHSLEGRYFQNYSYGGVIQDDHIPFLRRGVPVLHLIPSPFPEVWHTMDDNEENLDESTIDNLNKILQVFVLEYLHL

SMILES	IC50 (read-out: IC50) [µM]	IC50 [1] [µM]
CCc1ccccc1C1/C(=N/C2CCCc3ccccc32)NC(=S)N1c1ccc2[nH]cnc2c1 (centres unmarked) [Compound 136, 1-(1H-Benzoimidazol-5-yl)-5-(2-ethyl-phenyl)-4-1,2,3,4-tetrahydro-naphthalen-1-yliminoimidazolidine-2-thione]	6.7	–
O=C1N/C(=N/c2ccc3c(c2)OCCO3)C(c2ccc(Br)cc2)N1c1ccc2[nH]cnc2c1 (centres unmarked) [Compound 331, 1-(1H-Benzoimidazol-5-yl)-5-(4-bromo-phenyl)-4-[2,3-dihydro-benzo[1,4]dioxin-6-ylimino]-imidazolidin-2-one]	0.004	0.0668
Cc1ccc2occ(C3/C(=N/CCCc4ccccc4)NC(=O)N3c3ccc4[nH]cnc4c3)c(=O)c2c1 (centres unmarked) [Compound 239, 1-(1H-Benzoimidazol-5-yl)-5-(6-methyl-4-oxo-4H-chromen-3-yl)-4-(3-phenyl-propylimino)-imidazolidin-2-one]	0.4	–
S=C1N/C(=N/CCCc2ccccc2)C(c2cc(Br)cc(Br)c2)N1c1ccc2[nH]cnc2c1 (centres unmarked) [Compound 131, 1-(1H-Benzoimidazol-5-yl)-5-(3,5-dibromo-phenyl)-4-3-phenyl-propylimno-imidazolidine-2-thione]	5.8	–
O=c1c(C2/C(=N/Cc3ccccc3)NC(=S)N2c2ccc3[nH]cnc3c2)coc2ccccc12 (centres unmarked) [Compound 124, 3-{3-(1H-Benzoimidazol-5-yl)-5-benzylimino-2-thioxo-imidazolidin-4-yl}-chromen-4-one]	3.1	–
CN1CCCN(C(=O)C/N=C2/NC(=O)N(c3ccc4[nH]cnc4c3)C2c2ccc3c(c2)OCCO3)CC1 (centres unmarked) [Compound 306, 1-(1H-Benzoimidazol-5-yl)-5-(2,3-dihydro-benzo1,4dioxin-6-yl)-4-2-(4-methyl-1,4diazepan-1-yl)-2-oxo-ethylimino-imidazolidin-2-one]	2.2	–
O=C1N/C(=N\C2CCCc3ccccc32)C(c2cc(Br)cs2)N1c1ccc2nc[nH]c2c1 (centres unmarked) [Compound 236, 1-(3H-Benzoimidazol-5-yl)-5-(4-bromo-thiophen-2-yl)-4-1,2,3,4-tetrahydro-naphthalen-1-ylimino-imidazolidin-2-one]	2.2	–
CC1=CC(C)C(C2/C(=N/C(C)C(C)(C)C)NC(=S)N2c2ccc3nc[nH]c3c2)CC1 (centres unmarked) [Compound 165, 1-(3H-Benzoimidazol-5-yl)-5-(2,4-dimethyl-cyclohex-3-enyl)-4-1,2,2-trimethyl-propylimino-imidazolidine-2-thione]	7.6	–
O=C1N/C(=N/CCc2cccs2)C(C2CCC=CO2)N1CCCn1ccnc1 (centres unmarked) [Compound 39, 5-(3,4-Dihydro-2H-pyran-2-yl)-1-(3-imidazol-1-yl-propyl)-4-2-thiophen-2-yl-ethylimino-imidazolidin-2-one]	7.6	–
COC(=O)C(C)/N=C1\NC(=O)N(c2ccc3[nH]cnc3c2)C1c1ccccc1 (centres unmarked) [Compound 234, Methyl 2-(1-(1H-benzo[d]imidazol-5-yl)-2-oxo-5-phenylimidazolidin-4-ylideneamino)propanoate]	7.6	–
CCc1ccccc1C1/C(=N/C2CCCc3ccccc32)NC(=O)N1c1ccc2[nH]cnc2c1 (centres unmarked) [Compound 160, 1-(1H-Benzoimidazol-5-yl)-5-(2-ethyl-phenyl)-4-1,2,3,4-tetrahydro-naphthalen-1-ylimino-imidazolidin-2-one]	2.2	–
Cc1ccc(C2/C(=N\c3cccc(C#N)c3)NC(=S)N2c2ccc3[nH]cnc3c2)c(C)c1 (centres unmarked) [Compound 140, 3-(1-(1H-benzo[d]imidazol-5-yl)-5-(2,4-dimethylphenyl)-2-thioxoimidazolidin-4-ylideneamino)benzo-nitrile]	8.5	–
COC(=O)C(C)/N=C1\NC(=S)N(c2ccc3[nH]cnc3c2)C1c1ccc(C)cc1 (centres unmarked) [Compound 249, Methyl 2-(1-(1H-benzo[d]imidazol-5-yl)-2-thioxo-5-p-tolylimidazolidin-4-ylideneamino)propanoate]	5.8	–
CC1=CC(C)C(C2/C(=N/C3CCc4ccccc43)NC(=S)N2c2ccc3[nH]cnc3c2)CC1 (centres unmarked) [Compound 273, 1-(1H-Benzoimidazol-5-yl)-5-(2,4-dimethyl-cyclohex-3-enyl)-4-indan-1-ylimino-imidazolidine-2-thione]	7.6	–
CCCCC1/C(=N/Cc2cc(OC)c(OC)c(OC)c2)NC(=O)N1CCCn1ccnc1 (centres unmarked) [Compound 27, 5-Butyl-1-(3-imidazol-1-yl-propyl)-4-3,4,5-trimethoxy-benzylimino-imidazolidin-2-one]	5.8	–
O=C1N/C(=N\CCC(c2ccccc2)c2ccccc2)C(c2ccccc2Cl)N1CCCn1ccnc1 (centres unmarked) [Compound 110, 5-(2-Chloro-phenyl)-4-3,3-diphenyl-propylimino-1-(3-imidazol-1-yl-propyl)-imidazolidin-2-one]	6.7	–
C/N=C1/NC(=O)N(c2ccc3[nH]cnc3c2)C1c1ccc(C)cc1 (centres unmarked) [Compound 167, 1-(1H-Benzoimidazol-5-yl)-4-methylimino-5-p-tolyl-imidazolidin-2-one]	0.4	–
O=C(C/N=C1/NC(=O)N(CCCn2ccnc2)C1c1ccc(Cl)c(F)c1)N1Cc2ccccc2C1 (centres unmarked) [Compound 13, 5-(4-Chloro-3-fluoro-phenyl)-4-2-(1,3-dihydro-isoindol-2-yl)-2-oxo-ethylimino-1-(3-imidazol-1-yl-propyl)-imidazolidin-2-one]	8.3	–

SMILES	IC50 (read-out: IC50) [µM]	IC50 [1] [µM]
O=C1N/C(=N/CCc2c[nH]c3ccccc23)C(c2ccsc2)N1CCCn1ccnc1 (centres unmarked) [Compound 47, 1-(3-Imidazol-1-yl-propyl)-4-2-(1H-indol-3-yl)-ethylimino-5-thiophen-3-yl-imidazolidin-2-one]	4	–
Cc1ccc(C2/C(=N/C(C)C)NC(=O)N2c2ccc3[nH]cnc3c2)c(C)c1 (centres unmarked) [Compound 156, 1-(1H-Benzoimidazol-5-yl)-5-(2,4-dimethyl-phenyl)-4-isopropylimino-imidazolidin-2-one]	0.4	–
O=C(C/N=C1\C(c2cccc(Br)c2)NC(=S)N1c1ccc2[nH]cnc2c1)N1CCSCC1 (centres unmarked) [Compound 152, 2-(3-(1H-benzo[d]imidazol-5-yl)-5-(3-bromophenyl)-2-thioxoimidazolidin-4-ylideneamino)-1-thiomorpholinoetha-none]	2.2	–
O=C1N/C(=N\CCc2cccs2)C(c2ccccc2Cl)N1CCCn1ccnc1 (centres unmarked) [Compound 43, 5-(2-Chloro-phenyl)-1-(3-imidazol-1-yl-propyl)-4-(2-thiophen-2-yl-ethylimino)-imidazolidin-2-one]	0.04	0.858
O=C1N/C(=N\C2CCCCC2)C(c2ccccc2F)N1CCCn1ccnc1 (centres unmarked) [Compound 8, 4-Cyclohexylimino-5-(2-fluoro-phenyl)-1-(3-imidazol-1-yl-propyl)-imidazolidin-2-one]	8.6	–
C/N=C1/NC(=S)N(c2ccc3[nH]cnc3c2)C1c1ccc(C)cc1 (centres unmarked) [Compound 141, 1-(1H-Benzoimidazol-5-yl)-4-methylimino-5-p-tolyl-imidazolidine-2-thione]	9.4	–
CCCCC1/C(=N/C(c2ccccc2)c2ccccc2)NC(=O)N1CCCn1ccnc1 (centres unmarked) [Compound 86, 4-Benzhydrylimino-5-butyl-1-(3-imidazol-1-yl-propyl)-imidazolidin-2-one]	5.8	–
S=C1N/C(=N/Cn2nnc3ccccc32)C(c2ccc3ccccc3c2)N1c1ccc2[nH]cnc2c1 (centres unmarked) [Compound 309, 1-(1H-Benzoimidazol-5-yl)-4-benzotriazol-1-ylmethylimino-5-naphthalen-2-yl-imidazolidine-2-thione]	1.3	–
S=C1N/C(=N\c2ccccc2Br)C(c2ccc3ccccc3c2)N1c1ccc2nc[nH]c2c1 (centres unmarked) [Compound 264, 1-(3H-Benzoimidazol-5-yl)-4-2-bromo-phenylimino-5-naphthalen-2-yl-imidazolidine-2-thione]	8.5	–
O=C1N/C(=N\c2ccc3c(c2)OCCO3)C(c2ccc3c(c2)OCO3)N1c1ccc2[nH]cnc2c1 (centres unmarked) [Compound 292, 5-Benzo1,3dioxol-5-yl-1-(1H-benzoimidazol-5-yl)-4-2,3-dihydro-benzo1,4dioxin-6-ylimino-imidazolidin-2-one]	1.3	–
CC(/N=C1\NC(=O)N(c2ccc3[nH]cnc3c2)C1c1ccccc1C(F)(F)F)C(C)(C)C (centres unmarked) [Compound 138, 1-(1H-Benzoimidazol-5-yl)-5-(2-trifluoromethyl-phenyl)-4-1,2,2-trimethyl-propylimino-imidazolidin-2-one]	0.004	1.23
C/N=C1/NC(=O)N(CCCn2ccnc2)C1c1ccccc1 (centres unmarked) [Compound 14, 1-(3-Imidazol-1-yl-propyl)-4-methylimino-5-phenyl-imidazolidin-2-one]	7.6	–
O=C1N/C(=N/CCCN2CCOCC2)C(c2ccc3[nH]ccc3c2)N1c1ccc2[nH]cnc2c1 (centres unmarked) [Compound 163, 1-(1H-Benzoimidazol-5-yl)-5-(1H-indol-5-yl)-4-3-morpholin-4-yl-propylimino-imidazolidin-2-one]	0.004	–
O=C1N/C(=N/CCN2CCOCC2)C(c2ccc3ccccc3c2)N1c1ccc2[nH]cnc2c1 (centres unmarked) [Compound 233, 1-(1H-Benzoimidazol-5-yl)-4-2-morpholin-4-yl-ethylimino-5-naphthalen-2-yl-imidazolidin-2-one]	2.2	–
O=C1N/C(=N/CCc2c[nH]c3ccccc23)C(c2ccccc2)N1CCCn1ccnc1 (centres unmarked) [Compound 49, 1-(3-Imidazol-1-yl-propyl)-4-2-(1H-indol-3-yl)-ethylimino-5-phenyl-imidazolidin-2-one]	4.9	–
CC1=CC(C)C(C2/C(=N/c3ccccc3Br)NC(=S)N2c2ccc3[nH]cnc3c2)CC1 (centres unmarked) [Compound 300, 1-(1H-Benzoimidazol-5-yl)-4-2-bromo-phenylimino-5-(2,4-dimethyl-cyclohex-3-enyl)-imidazolidine-2-thione]	9.4	–
N#Cc1cccc(/N=C2\NC(=S)N(c3ccc4[nH]cnc4c3)C2c2ccc3c(c2)OCCO3)c1 (centres unmarked) [Compound 126, 3-(1-(1H-benzo[d]imidazol-5-yl)-5-(2,3-dihydrobenzo[b][1,4]dioxin-6-yl)-2-thioxoimidazolidin-4-ylideneamino)benzo-nitrile]	4.9	–
